The results in this text go back to ChEMBL document CHEMBL4043231, “Discovery of highly potent, selective, covalent inhibitors of JAK3” (Bioorg Med Chem Lett, 2017).

Calls of active or inactive are those of the source. The calls are words filed in the database; no cut-off is given here. Where only a bound is given, the exact number is not on record here.

Data set [1] concerns the target T1, Tyrosine-protein kinase JAK2 (Homo sapiens, UniProt O60674). Briefly: Inhibition of GST-tagged JAK2 (unknown origin) using fluoresceinated peptide as substrate after 3 hrs by caliper assay.
Data set [2] has as its target T2, Tyrosine-protein kinase JAK3 (Homo sapiens, UniProt P52333).
T2 sequence (P52333 whole entry): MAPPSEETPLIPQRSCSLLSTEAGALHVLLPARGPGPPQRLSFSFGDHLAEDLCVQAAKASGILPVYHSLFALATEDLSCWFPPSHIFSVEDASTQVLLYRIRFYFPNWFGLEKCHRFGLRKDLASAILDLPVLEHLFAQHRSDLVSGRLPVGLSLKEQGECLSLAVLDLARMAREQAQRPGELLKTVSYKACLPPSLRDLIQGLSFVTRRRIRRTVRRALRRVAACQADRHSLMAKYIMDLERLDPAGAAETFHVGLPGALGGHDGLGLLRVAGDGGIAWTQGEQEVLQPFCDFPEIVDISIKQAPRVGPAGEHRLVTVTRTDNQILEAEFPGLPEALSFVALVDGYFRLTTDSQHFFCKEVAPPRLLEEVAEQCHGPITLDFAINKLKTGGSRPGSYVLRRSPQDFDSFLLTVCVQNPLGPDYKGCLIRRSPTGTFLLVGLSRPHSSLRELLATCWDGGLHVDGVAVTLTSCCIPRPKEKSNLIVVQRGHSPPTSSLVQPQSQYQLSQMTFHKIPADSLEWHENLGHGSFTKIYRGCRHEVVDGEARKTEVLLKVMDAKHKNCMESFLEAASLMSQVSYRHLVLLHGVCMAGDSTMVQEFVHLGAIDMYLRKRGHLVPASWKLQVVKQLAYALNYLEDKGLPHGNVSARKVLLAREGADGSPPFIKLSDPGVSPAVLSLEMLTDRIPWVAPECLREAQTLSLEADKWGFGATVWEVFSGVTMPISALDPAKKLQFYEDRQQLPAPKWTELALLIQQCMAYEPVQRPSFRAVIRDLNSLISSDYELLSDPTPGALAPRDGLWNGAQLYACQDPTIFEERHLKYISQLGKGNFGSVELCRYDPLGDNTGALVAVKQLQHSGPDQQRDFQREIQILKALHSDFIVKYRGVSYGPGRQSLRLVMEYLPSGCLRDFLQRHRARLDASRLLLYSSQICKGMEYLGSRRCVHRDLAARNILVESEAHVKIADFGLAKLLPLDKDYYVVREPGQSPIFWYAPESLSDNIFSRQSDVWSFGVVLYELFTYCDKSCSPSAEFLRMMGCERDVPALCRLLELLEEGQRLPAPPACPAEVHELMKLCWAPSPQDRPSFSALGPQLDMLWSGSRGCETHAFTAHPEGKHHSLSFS
Nature of the data set: Inhibition of JAK3 (unknown origin) using CSKtide as substrate after 30 mins in presence of [gamma32P]ATP by top-count liquid scintillation counting method.

For data set [3], the target named is Non-receptor tyrosine-protein kinase TYK2 (Homo sapiens, UniProt P29597). Nature of the data set: Inhibition of His-tagged TYK2 (unknown origin) using fluoresceinated peptide as substrate after 3 hrs by caliper assay.
The target in data set [4] is Tyrosine-protein kinase JAK1 (Homo sapiens, UniProt P23458). Briefly: Inhibition of GST-tagged JAK1 (unknown origin) using fluoresceinated peptide as substrate after 3 hrs by caliper assay.
Another data set deals with T-cell. Briefly: Inhibition of IL-2 induced cell proliferation in human PBMC derived T cells pretreated for 60 mins followed by IL-2 addition measured after 3 days by [3H]thymidine incorporation assay. In kind it is functional, cell-based.
Data set [5] deals with T3, Tyrosine-protein kinase JAK3 (Homo sapiens) (UniProt P52333).
T3 sequence (whole entry): T2 sequence (P52333 whole entry)
Briefly: Inhibition of JAK3 (unknown origin) using CSKtide as substrate pretreated measured after 30 mins in presence of [gamma32P]ATP by top-count liquid scintillation counting method.

Data set [6] addresses T4, Tyrosine-protein kinase BTK (Homo sapiens, UniProt Q06187). Briefly: Inhibition of full length human His-tagged BTK expressed in baculovirus expression system using GEEPLYWSFPAKKK-NH2 as substrate pretreated for 15 mins followed by ATP addition measured after 10 mins by topcount scintillation counting analysis.
Data set [7] addresses T4, Tyrosine-protein kinase BTK. Briefly: Time-dependent inhibition of full length human His-tagged BTK expressed in baculovirus expression system using GEEPLYWSFPAKKK-NH2 as substrate by topcount scintillation counting analysis.
For the next data set, the system named is Blood. Briefly: Inhibition of IL2-induced IFNgamma production in human whole blood. Format: functional.
The target in data set [8] is Epidermal growth factor receptor (Homo sapiens, UniProt P00533). Nature of the data set: Inhibition of EGFR (unknown origin) by caliper assay.
Data set [9] deals with T1, Tyrosine-protein kinase JAK2. Nature of the data set: Inhibition of JAK2 in human TF1 cells assessed as reduction in EPO-induced STAT5A phosphorylation pretreated for 30 mins followed by EPO addition measured after 10 mins by ELISA. In kind it is cell-based.
The target in data set [10] is T3, Tyrosine-protein kinase JAK3 (Homo sapiens).
Description: Time-dependent inhibition of JAK3 (unknown origin) using CSKtide as substrate in presence of [gamma32P]ATP by top-count liquid scintillation counting method
The target in the next data set is JAK1/TYK2 (Homo sapiens, UniProt P23458+P29597). Briefly: Inhibition of JAK1/TYK2 in human PBMC derived T cell assessed as reduction in IFNa2a-induced STAT3 phosphorylation after 30 mins by ELISA. Format: protein-complex assay.
Data set [11] deals with T4, Tyrosine-protein kinase BTK. Nature of the data set: Inhibition of full length human His-tagged BTK expressed in baculovirus expression system using GEEPLYWSFPAKKK-NH2 as substrate pretreated for 120 mins followed by ATP addition measured after 10 mins by topcount scintillation counting analysis.
Data set [12] has the same target. Briefly: Inhibition of full length human His-tagged BTK expressed in baculovirus expression system using GEEPLYWSFPAKKK-NH2 as substrate measured after 10 mins in presence of ATP by topcount scintillation counting analysis.
Data set [13] can be described thus: Bioavailability in mouse. In kind it is ADME, organism-based. The note with it: in vivo.
Data set [14] addresses T4, Tyrosine-protein kinase BTK. Nature of the data set: Inhibition of BTK in goat anti-human IgM F(ab')2-stimulated human whole blood assessed as suppression of BCR-induced CD69 expression on B cells after 18 hrs by FACS analysis.
Data set [15] has as its target Macrophage colony-stimulating factor 1 receptor (Homo sapiens, UniProt P07333). Nature of the data set: Inhibition of FMS (unknown origin) by caliper assay.
The next data set deals with JAK3/JAK1 (Homo sapiens, UniProt P23458+P52333). Nature of the data set: Inhibition of JAK1/JAK3 in human PBMC derived T cell assessed as reduction in IL2-induced STAT3 phosphorylation after 30 mins by ELISA. In kind it is protein-complex assay.
For data set [16], the target named is T4, Tyrosine-protein kinase BTK. Nature of the data set: Inhibition of full length human His-tagged BTK expressed in baculovirus expression system using GEEPLYWSFPAKKK-NH2 as substrate measured immediately in presence of ATP by topcount scintillation counting analysis.
The target is the same in data set [17]. Nature of the data set: Inhibition of full length human His-tagged BTK expressed in baculovirus expression system using GEEPLYWSFPAKKK-NH2 as substrate pretreated for 45 mins followed by ATP addition measured after 10 mins by topcount scintillation counting analysis.

T4 sequence (Q06187 whole entry): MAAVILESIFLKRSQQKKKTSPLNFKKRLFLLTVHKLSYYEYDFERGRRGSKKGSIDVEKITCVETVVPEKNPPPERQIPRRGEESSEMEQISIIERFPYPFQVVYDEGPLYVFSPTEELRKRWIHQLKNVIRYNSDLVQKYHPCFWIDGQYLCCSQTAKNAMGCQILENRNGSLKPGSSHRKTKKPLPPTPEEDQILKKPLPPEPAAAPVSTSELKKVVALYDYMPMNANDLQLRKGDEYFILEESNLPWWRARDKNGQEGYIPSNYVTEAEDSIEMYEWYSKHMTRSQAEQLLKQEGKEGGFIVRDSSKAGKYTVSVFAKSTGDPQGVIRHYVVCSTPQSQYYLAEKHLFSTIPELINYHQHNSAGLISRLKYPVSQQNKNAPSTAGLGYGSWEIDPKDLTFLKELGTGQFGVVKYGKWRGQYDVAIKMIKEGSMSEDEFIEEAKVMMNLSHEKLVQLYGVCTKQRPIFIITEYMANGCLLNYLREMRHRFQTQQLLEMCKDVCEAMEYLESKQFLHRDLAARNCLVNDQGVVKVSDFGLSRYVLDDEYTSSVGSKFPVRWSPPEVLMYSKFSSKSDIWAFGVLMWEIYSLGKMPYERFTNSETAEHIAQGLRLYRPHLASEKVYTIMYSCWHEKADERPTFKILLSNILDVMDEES
Chain of Tyrosine-protein kinase JAK1 (P23458 whole entry): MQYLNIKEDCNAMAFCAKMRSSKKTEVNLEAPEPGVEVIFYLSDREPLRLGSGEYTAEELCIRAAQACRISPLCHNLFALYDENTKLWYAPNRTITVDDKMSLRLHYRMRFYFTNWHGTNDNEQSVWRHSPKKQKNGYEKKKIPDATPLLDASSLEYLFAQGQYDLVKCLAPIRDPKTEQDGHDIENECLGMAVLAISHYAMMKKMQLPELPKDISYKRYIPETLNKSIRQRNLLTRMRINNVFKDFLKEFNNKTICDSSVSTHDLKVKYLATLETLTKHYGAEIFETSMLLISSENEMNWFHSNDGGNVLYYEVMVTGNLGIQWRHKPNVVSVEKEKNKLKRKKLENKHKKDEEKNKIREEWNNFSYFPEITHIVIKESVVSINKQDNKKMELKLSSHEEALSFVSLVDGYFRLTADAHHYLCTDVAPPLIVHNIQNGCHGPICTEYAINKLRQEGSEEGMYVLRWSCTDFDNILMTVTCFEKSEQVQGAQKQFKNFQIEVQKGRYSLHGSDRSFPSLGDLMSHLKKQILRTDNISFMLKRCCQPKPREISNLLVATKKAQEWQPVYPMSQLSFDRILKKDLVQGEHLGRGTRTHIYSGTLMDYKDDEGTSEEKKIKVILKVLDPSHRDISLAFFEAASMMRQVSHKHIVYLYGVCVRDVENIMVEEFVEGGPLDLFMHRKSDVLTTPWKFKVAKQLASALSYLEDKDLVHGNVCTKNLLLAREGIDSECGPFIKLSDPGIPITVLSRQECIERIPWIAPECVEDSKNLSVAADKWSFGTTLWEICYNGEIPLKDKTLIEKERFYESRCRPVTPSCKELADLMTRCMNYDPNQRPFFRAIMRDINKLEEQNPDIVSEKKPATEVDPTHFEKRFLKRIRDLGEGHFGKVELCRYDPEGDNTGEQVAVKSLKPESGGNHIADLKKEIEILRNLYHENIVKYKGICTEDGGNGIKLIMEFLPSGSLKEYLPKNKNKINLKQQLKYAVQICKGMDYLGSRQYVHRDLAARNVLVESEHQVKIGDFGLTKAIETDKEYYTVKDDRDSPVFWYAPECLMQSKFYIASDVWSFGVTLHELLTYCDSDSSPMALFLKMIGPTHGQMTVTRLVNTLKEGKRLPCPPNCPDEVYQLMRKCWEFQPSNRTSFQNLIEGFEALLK
Chain of Non-receptor tyrosine-protein kinase TYK2 (P29597 whole entry): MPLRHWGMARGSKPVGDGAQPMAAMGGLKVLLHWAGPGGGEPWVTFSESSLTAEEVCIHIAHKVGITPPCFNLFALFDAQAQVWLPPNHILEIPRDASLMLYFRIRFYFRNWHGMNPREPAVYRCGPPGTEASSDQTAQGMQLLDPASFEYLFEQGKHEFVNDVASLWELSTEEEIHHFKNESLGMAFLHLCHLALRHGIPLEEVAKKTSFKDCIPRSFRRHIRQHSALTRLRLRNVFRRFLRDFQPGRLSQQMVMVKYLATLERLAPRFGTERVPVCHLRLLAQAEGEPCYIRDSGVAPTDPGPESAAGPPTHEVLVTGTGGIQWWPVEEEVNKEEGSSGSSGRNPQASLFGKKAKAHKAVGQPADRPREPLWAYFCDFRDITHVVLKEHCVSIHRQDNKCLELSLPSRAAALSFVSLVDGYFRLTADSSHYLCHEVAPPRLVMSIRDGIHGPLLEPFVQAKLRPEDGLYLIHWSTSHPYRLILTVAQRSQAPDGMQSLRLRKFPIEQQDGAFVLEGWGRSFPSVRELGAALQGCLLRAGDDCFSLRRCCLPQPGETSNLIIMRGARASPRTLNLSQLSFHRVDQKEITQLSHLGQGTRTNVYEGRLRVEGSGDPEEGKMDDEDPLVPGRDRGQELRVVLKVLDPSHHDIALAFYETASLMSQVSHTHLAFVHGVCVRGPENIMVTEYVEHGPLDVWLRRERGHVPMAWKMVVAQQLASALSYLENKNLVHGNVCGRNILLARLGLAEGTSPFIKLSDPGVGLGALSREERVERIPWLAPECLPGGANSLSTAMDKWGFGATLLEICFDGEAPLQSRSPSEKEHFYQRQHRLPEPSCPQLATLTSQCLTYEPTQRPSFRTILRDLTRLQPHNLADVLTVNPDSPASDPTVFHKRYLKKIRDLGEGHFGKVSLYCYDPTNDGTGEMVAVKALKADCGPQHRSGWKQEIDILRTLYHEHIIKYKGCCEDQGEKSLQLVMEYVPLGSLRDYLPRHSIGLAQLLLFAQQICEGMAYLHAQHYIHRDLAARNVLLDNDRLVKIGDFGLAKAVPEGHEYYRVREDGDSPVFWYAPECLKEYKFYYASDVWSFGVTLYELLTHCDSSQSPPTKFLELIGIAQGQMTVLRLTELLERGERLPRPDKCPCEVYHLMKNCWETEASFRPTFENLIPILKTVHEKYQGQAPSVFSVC
T1 sequence (O60674 whole entry): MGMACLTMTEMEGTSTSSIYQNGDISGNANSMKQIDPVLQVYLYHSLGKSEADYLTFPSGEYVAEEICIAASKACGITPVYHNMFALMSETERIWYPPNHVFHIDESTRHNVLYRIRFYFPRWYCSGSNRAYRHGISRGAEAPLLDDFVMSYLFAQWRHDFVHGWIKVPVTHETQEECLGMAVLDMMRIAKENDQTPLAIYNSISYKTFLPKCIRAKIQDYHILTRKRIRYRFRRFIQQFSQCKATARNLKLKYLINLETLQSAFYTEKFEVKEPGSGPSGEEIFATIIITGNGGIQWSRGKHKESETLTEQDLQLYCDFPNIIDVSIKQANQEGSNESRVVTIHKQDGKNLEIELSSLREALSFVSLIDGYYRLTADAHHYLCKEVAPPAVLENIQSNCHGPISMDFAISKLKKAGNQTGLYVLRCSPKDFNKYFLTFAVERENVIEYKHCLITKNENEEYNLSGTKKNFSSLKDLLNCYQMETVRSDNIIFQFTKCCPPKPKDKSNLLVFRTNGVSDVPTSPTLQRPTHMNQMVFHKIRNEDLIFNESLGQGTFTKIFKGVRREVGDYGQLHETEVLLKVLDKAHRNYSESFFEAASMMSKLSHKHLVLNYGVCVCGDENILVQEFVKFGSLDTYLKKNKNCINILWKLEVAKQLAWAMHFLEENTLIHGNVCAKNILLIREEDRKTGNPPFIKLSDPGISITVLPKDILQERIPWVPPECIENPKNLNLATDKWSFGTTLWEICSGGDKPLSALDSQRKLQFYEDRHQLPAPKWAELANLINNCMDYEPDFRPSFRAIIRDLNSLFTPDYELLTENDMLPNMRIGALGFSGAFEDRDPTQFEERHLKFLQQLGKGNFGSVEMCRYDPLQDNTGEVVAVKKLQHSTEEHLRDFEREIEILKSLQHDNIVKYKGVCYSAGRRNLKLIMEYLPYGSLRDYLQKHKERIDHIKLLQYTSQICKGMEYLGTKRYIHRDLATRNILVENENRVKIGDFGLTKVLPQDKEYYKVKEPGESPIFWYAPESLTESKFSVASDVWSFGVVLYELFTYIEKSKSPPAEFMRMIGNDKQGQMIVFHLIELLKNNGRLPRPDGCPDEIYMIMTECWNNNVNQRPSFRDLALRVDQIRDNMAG
Chain of JAK1/TYK2 (P23458 whole entry): as the sequence (P23458 whole entry) above
Chain of JAK1/TYK2 (P29597 whole entry): as the sequence (P29597 whole entry) above
Chain of JAK3/JAK1 (P23458 whole entry, one chain of several): as the sequence (P23458 whole entry) above

As to `NC(=O)c1cnn2cccc2c1NCc1cccc(NC(=O)COc2c(F)c(F)c(F)c(F)c2F)c1`, the IC50 was above 2000 nM in [1]; 743 nM in data set [2]; above 2000 nM in data set [3]; above 2000 nM in data set [4]; 15400 nM with T-cell.
For the compound `CN(C)/C=C(/C#N)C(=O)Nc1cccc(CNc2c(C(N)=O)cnn3cccc23)c1`, the half-inhibitory concentration (IC50) in data set [1] was above 2000 nM; in data set [2] it was 942 nM; in data set [3], above 2000 nM; in [4] it was above 2000 nM; in the data set on T-cell, 14400 nM.
With `CCC(=O)Nc1cccc(CNc2cc(Nc3ccccc3)ncc2C(N)=O)c1`, the IC50 in data set [2] was 100 nM. Further, in data set [5], the inhibition entry is “Active”.
`NC(=O)c1cnn2cc(-c3ccccc3)cc2c1NCc1ccccc1`: the IC50 in data set [1] turned out to be 438 nM; in data set [2], 14 nM; in data set [3], 118 nM; in data set [4] it was 214 nM.
Regarding `C=CC(=O)Nc1cccc(CNc2cc(Nc3ccccc3)ncc2C(N)=O)c1`, the IC50 is 1300 nM in data set [1]; below 1 nM in data set [2]; 490 nM in the data set with Blood; above 10000 nM in [8]; 11000 nM in data set [9]; 4900 nM at JAK1/TYK2. The IC50 is above 5000 nM in data set [3]; above 2500 nM in data set [12]; above 10000 nM in data set [14]; 1100 nM in [4]; 180 nM in data set [15]; 22 nM with T-cell. In addition, at JAK3/JAK1, the IC50 turned out to be 51 nM. The EC50 came to 6560 nM in data set [6], 1580 nM in data set [11], 19800 nM in data set [16] and 2890 nM in data set [17]. Also, the TDI result in [7] and in data set [10] was “Active” throughout. In data set [13], this compound displayed a bioavailability below 30%.
Turning to `NC(=O)c1cnc(Nc2ccccc2)cc1NCc1ccccc1`, the IC50 in [1] worked out at 203 nM; in [3], 774 nM; in data set [4], 219 nM.
For the compound `C/C=C/C(=O)Nc1cccc(CNc2c(C(N)=O)cnn3cccc23)c1`, the IC50 was above 2000 nM in [1]; 175 nM in [2]; above 2000 nM in data set [3]; 1420 nM in data set [4]; 26600 nM in the data set with T-cell.
For `N#CCC(=O)Nc1cccc(CNc2c(C(N)=O)cnn3cccc23)c1`, the IC50 in data set [1] was determined as 658 nM; in data set [2], 35 nM; in data set [3], 2000 nM; in [4], 264 nM; in the data set with T-cell, 8450 nM.
Taken in the same sequence, the figures for `C=CS(=O)(=O)Nc1cccc(CNc2c(C(N)=O)cnn3cccc23)c1` were 1270 nM, 3.5 nM, above 2000 nM, 974 nM and 6700 nM.
Taken in the same sequence, the figures for `NC(=O)c1cnn2cccc2c1NCc1cccc(NC(=O)Cn2sc3ccccc3c2=O)c1` were 745 nM, 30 nM, 240 nM, 196 nM and 5480 nM.
Consider `C=CC(=O)Nc1cccc(CNc2c(C(N)=O)cnn3cccc23)c1`, for which the IC50 in [1] is above 2000 nM; in data set [2], 1.3 nM; with Blood it was 2300 nM; in data set [3], above 2000 nM; in data set [4] it was 1700 nM; with T-cell it was 55 nM.
